Consider four compounds from US20190022092A1, “Therapeutic Combinations of a BTK Inhibitor and a GITR Binding Molecule, a 4-1BB Agonist, or an OX40 Agonist” (Acerta Pharma B.V., priority 2015, published 2019).

The subject of series [1] is CD8+ T cells. Description: CD8+ T cell viability on anti-TCR/anti-CD28 coated wells. It is filed as cell-based. Particulars: 4 days, neutral culture conditions. As for the experimental part: Total T cells were plated on anti-TCR and anti-CD28 coated wells in the presence of both BTK inhibitors. Neutral culture conditions were used that will not polarize T cells to a helper lineage. […] Statistical significance was calculated using the Mann Whitney T-test.

The test system of series [2] is Raji cell line. As to the kind of experiment: Antibody-dependent NK cell-mediated cytotoxicity, chromium release, Raji cell line. The settings on record: 1 μM, 4 hours, variable rituximab, effector:target 25:1. Type of series: cell-based.
Series [3] concerns GPVI platelet aggregation. Description: GPVI (convulxin-induced) platelet aggregation. It is filed as cell-based. The settings on record: human platelets. As for the experimental part: In FIG. 67, the results of CVX-induced (250 ng/mL) human platelet aggregation results before and 15 minutes after administration of the BTK inhibitors to 6 healthy individuals are shown.
In series [4] the test system is Th17 and Treg cells. As to the kind of experiment: Th17 and Treg development of CD4+ T cells under skewing cytokines. Type of series: cell-based. As for the experimental part:
Enriched CD4^+ T cells are plated on 24-well culture dishes that have been precoated 2 hr with 250 μL anti-TCRβ (0.5 μg/mL) plus anti-CD28 (5 μg/mL) at 37° C. in PBS. The cells are then supplemented with media containing BTK inhibitors along with the skewing cytokines as indicated in the following. The Th17 and Treg cultures are grown for 4 days before analysis. The cells are maintained for an additional 3 days with skewing cytokines (Th17; 20 ng/mL IL-6, 0.5 ng/mL TGF-β, 5 μg/mL IL-4, 5 μg/mL IFN-γ and Treg; 0.5 ng/mL TGF-β, 5 μg/mL IL-4, 5 μg/mL IFN-γ) and are supplemented with IL2 as a growth factor.

The test system of series [5] is CD8+ T cell function (B lymphoblast targets). As to the kind of experiment: Cytotoxic T cell (CTL) assay. It is filed as cell-based. The settings on record: CTL generated 4 days with 500 nM inhibitor. As for the experimental part: Without being bound by any theory, CD8^+ T cells have two primary effector functions: (1) produce large amounts of IFN-γ (which activates macrophages), and (2) cytolytic activity. […] The targets were B lymphoblasts from lipopolysaccharide (LPS) treated cultures. The assay was performed by incubating different ratios of effectors:targets for 4 hours.

Series [6] concerns CD8+ T cell. Description: Cytotoxicity assay for CD8+ T cell function. It is filed as cell-based. The settings on record: relative to vehicle. From the text:
FIG. 38 illustrates the results of the cytotoxicity assay for CD8^+ T cell function.

The test system of series [7] is hematologic malignancies. The settings on record: cited from earlier work.
Series [8] has as its system CD8+ T cell. As to the kind of experiment: IFN-γ level measurements for CD8+ T cell function. It is filed as cell-based. The settings on record: relative to vehicle. From the text: FIG. 39 illustrates the results of IFN-γ level measurements for CD8^+ T cell function.
The subject of series [9] is GPVI platelet aggregation. As to the kind of experiment: GPVI platelet aggregation studies. Type of series: cell-based. Particulars: read-out: IC50, GPVI platelet aggregation.
The test system of series [10] is NK cell lysis of Raji cells. As to the kind of experiment: Rituximab ADCC 51Cr release assay, Raji targets. Type of series: cell-based, human. From the text: Cell culture conditions were as follows. […] The HER18 cells were maintained in DEM supplemented with fetal bovine serum, penicillin-streptomycin and. Prior to assay, HER18 cells were harvested using trypsin-EDTA, washed with phosphate-buffered saline (PBS) containing 5% serum and viable cells were counted. For culture of primary target cells, peripheral blood from CLL patients was subject to density centrifugation to obtain peripheral blood mononuclear cells (PBMC). Cell preparations were washed and then subject to positive selection of CD5^+CD19^+ CLL cells using magnetic beads (MACS, Miltenyi Biotech). Cell preparations were used fresh after selection. NK cells from CLL patients and healthy volunteers were enriched from peripheral blood collected in sodium citrate anticoagulant tubes and then subject to density centrifugation. Removal of non NK cells was performed using negative selection by MACS separation. Freshly isolated NK cells were washed three times, enumerated, and then used immediately for ADCC assays.
ADCC assays were performed as follows. Briefly, target cells (Raji or primary CLL) were labeled by incubation at 37° C. with 100 μCi ^51Cr for 4 hours prior to co-culture with NK cells. Cells were washed, enumerated, and then added in triplicate to prepared 96-well plates containing treated NK cells at an effector:target (E:T) ratio of 25:1. […] Cultures were incubated at 37° C. for 4 hours, and then centrifuged. Supernatants were harvested and ^51Cr release was measured by liquid scintillation counting. All experiments were performed in triplicate.

The test system of series [11] is human platelet-mediated thrombosis. The settings on record: VWF HA1, mouse (infused with human platelets), in vivo, 2 min. As for the experimental part:
Injury to the vessel wall of arterioles ([…] diameter) was performed using a pulsed nitrogen dye laser (440 nm, Photonic Instruments) applied through a 20× water-immersion Olympus objective (LUMPlanF1, 0.5 numerical aperture (NA)) of a Zeiss Axiotech vario microscope. […] The extent of thrombus formation was assessed for 2 minutes after injury and the area (μm^2) of coverage determined (Image IQ, Andor Technology).
The BTK inhibitor-treated human platelets were fluorescently labeled and infused continuously through a catheter inserted into the femoral artery.

For series [12], the system named is peripheral blood B cell. Particulars: doses from 0.001-100 mg/kg, two experiments; cited from earlier work.

As to `C=CC(=O)N1CCC[C@@H](n2nc(-c3ccc(Oc4ccccc4)cc3)c3c(N)ncnc32)C1` [Formula (10), 1-[(3R)-3-[4-amino-3-(4-phenoxyphenyl)-1H-pyrazolo[3,4-d]pyrimidin-1-yl]piperidin-1-yl]prop-2-en-1-one, reference compound], the “CD8+ T cell viability” value in series [1] was “strong, negative effect”. In [2], the “antibody-dependent NK cell-mediated cytotoxicity (percent lysis)” value was “antagonizes antibody-dependent NK cell-mediated cytotoxicity”. Besides, the GPVI platelet aggregation entry in [3] is “significantly inhibits”. In addition, in [4], the Th17 development entry was “profound inhibition” and the Treg development entry is “increase”. Also, in series [5], the “CD8+ T cell function as % cytotoxicity” value was “affects CD8^+ T cell function” and the “CD8+ T cell function as IFN-γ levels” value is “significant loss of function”. Besides, in series [6], the “CD8+ T cell function as % cytotoxicity” value is “affects CD8^+ T cell function as measured by % cytotoxicity”. Further, the antitumor activity result in [7] (subjects with heavily pretreated non-Hodgkin lymphoma) is listed as “substantial antitumor activity”. In addition, the “maximum tolerated dose (MTD)” value in series [7] (within the tested dose range (through 840 mg)) is recorded as “No maximum tolerated dose (MTD) was apparent”. Further, the “CD8+ T cell function as IFN-γ level” value in [8] is “affects CD8^+ T cell function as measured by IFN-γ level”. The IC50 in series [9] came out at 130 nM. In addition, the “effect on rituximab-mediated ADCC, Raji cells” value in series [10] (1 μM, NK cells, E:T 25:1) was “strongly inhibited”.

In the case of `C=CC(=O)Nc1cccc(Nc2nc(Nc3ccc(OCCOC)cc3)ncc2F)c1` [Formula (17), N-(3-((5-fluoro-2-((4-(2-methoxyethoxy)phenyl)amino)pyrimidin-4-yl)amino)phenyl)acrylamide, reference compound], the “effect on human platelet-mediated thrombus formation” value in series [11] is “effect similar to Formula (10) (ibrutinib)”.

Take “PF-05082566: 4-1BB agonist monoclonal antibody from Pfizer; heavy chain SEQ ID NO:435, light chain SEQ ID NO:436”: in series [12], the “peripheral blood B cell numbers” value is reported as “either unchanged or decreased”.

On to “rituximab: anti-CD20 antibody (Genentech)”, for which the “increase in cell lysis over natural cytotoxicity” value in series [10] (rituximab 0.1 and 1 μg/mL, healthy donor NK cells, Raji cells) is 5- to 8 fold.
